In ChEMBL document CHEMBL5058564, “EUbOPEN Chemogenomics Library 2 (Incucyte)” (2022):

How the values were obtained:
Assay type in all cases: toxicity, cell-based
U2OS = experiment: Incucyte cell viability with U2OS; conditions: human, 10 µM, compound concentration 10 uM
HEK-293T = experiment: Incucyte cell viability with HEK293T; conditions: human, 10 µM, compound concentration 10 uM
Fibroblast = experiment: Incucyte cell viability with human fibroblast; conditions: 10 µM, compound concentration 10 uM
[1] = 0 h, replicate number 1, timepoint 0 hours
[2] = 0 h, replicate number 2, timepoint 0 hours
[3] = 6 h, replicate number 1, timepoint 6 hours
[4] = 6 h, replicate number 2, timepoint 6 hours
[5] = 12 h, replicate number 1, timepoint 12 hours
[6] = 12 h, replicate number 2, timepoint 12 hours
[7] = 18 h, replicate number 1, timepoint 18 hours
[8] = 18 h, replicate number 2, timepoint 18 hours
[9] = 24 h, replicate number 1, timepoint 24 hours
[10] = 24 h, replicate number 2, timepoint 24 hours
Further: unitless GR value; below 1 slowed growth and below 0 cell loss.

Structure (SMILES) | Growth Rate (U2OS; [1]) | Growth Rate (U2OS; [2]) | Growth Rate (U2OS; [3]) | Growth Rate (U2OS; [5]) | Growth Rate (U2OS; [6]) | Growth Rate (U2OS; [7]) | Growth Rate (U2OS; [8]) | Growth Rate (U2OS; [9]) | Growth Rate (U2OS; [10]) | Growth Rate (HEK-293T; [1]) | Growth Rate (HEK-293T; [2]) | Growth Rate (HEK-293T; [6]) | Growth Rate (HEK-293T; [8]) | Growth Rate (Fibroblast; [2]) | Growth Rate (Fibroblast; [3]) | Growth Rate (Fibroblast; [5]) | Growth Rate (Fibroblast; [7]) | Growth Rate (Fibroblast; [9]) | Growth Rate (Fibroblast; [1]) | Growth Rate (Fibroblast; [6]) | further results
CN(c1ncccc1CNc1ccnc(-c2nc3c(F)c(Cl)ccc3[nH]2)n1)S(C)(=O)=O | -0.62 | -0.69 | 0.1 | 0.15 | 0.66 | 0.62 | 0.87 | 0.78 | 0.72 | -0.02 | 0.48 | 0.72 | 0.99 | 0.75 | -0.47 | 0.38 | 0.27 | 0.36 | – | – | Growth Rate (U2OS; [4]): 0.61; Growth Rate (HEK-293T; [3]): 0.84; Growth Rate (HEK-293T; [5]): 0.97; Growth Rate (HEK-293T; [7]): 0.93; Growth Rate (HEK-293T; [10]): 0.81; Growth Rate (Fibroblast; [10]): 0.92
CCOC(=O)c1c(/C(C#N)=C\N)c2ccc(Cl)c(Cl)c2n1C | -0.21 | – | 0.29 | 0.64 | – | 0.5 | – | 0.73 | – | 0.5 | 0.59 | 0.77 | 0.7 | – | – | 0.64 | 0.47 | 0.29 | 0.69 | 0.53 | Growth Rate (HEK-293T; [3]): 0.56; Growth Rate (HEK-293T; [4]): 0.47; Growth Rate (HEK-293T; [7]): 0.9; Growth Rate (HEK-293T; [9]): 0.99; Growth Rate (HEK-293T; [10]): 0.93; Growth Rate (Fibroblast; [8]): 0.72; Growth Rate (Fibroblast; [10]): 0.73
CCCCC/C=C\C/C=C\C/C=C\C/C=C\CCCC(=O)NCC(=O)O [ARACHIDONOYL GLYCINE] | -0.29 | 0.28 | 0.64 | 0.64 | 0.9 | 0.72 | 0.97 | 0.76 | – | 0.53 | 0.42 | – | 0.93 | 0.25 | 0.18 | 0.75 | 0.78 | 0.8 | 0.41 | 0.99 | Growth Rate (HEK-293T; [5]): 0.8; Growth Rate (HEK-293T; [7]): 0.64; Growth Rate (HEK-293T; [9]): 0.52; Growth Rate (HEK-293T; [10]): 0.83; Growth Rate (Fibroblast; [4]): 0.75; Growth Rate (Fibroblast; [8]): 0.93; Growth Rate (Fibroblast; [10]): 0.79
CN1C[C@@H](NS(=O)(=O)N(C)C)C[C@@H]2c3cccc4c3c(cn4C)C[C@H]21.Cl [MESULERGINE HYDROCHLORIDE] | 0.87 | – | – | – | – | 0.99 | – | – | 0.99 | 0.52 | 0.55 | 0.91 | – | – | – | – | – | – | – | 0.81 | Growth Rate (U2OS; [4]): 0.84; Growth Rate (Fibroblast; [4]): -0.13
O=C1NC(=O)C(c2ccccc2[N+](=O)[O-])=C1Nc1ccc(O)c(Cl)c1 | 0.02 | -1 | – | 0.95 | – | – | – | 0.84 | – | 0.17 | 0.13 | – | – | 0.11 | – | – | – | – | -0.16 | – | –
CC[C@H](Nc1ncnc2[nH]cnc12)c1nc2cccc(F)c2c(=O)n1-c1ccccc1 [IDELALISIB] | 0.06 | -0.03 | 0.46 | 0.4 | 0.55 | 0.44 | 0.68 | 0.59 | 0.73 | – | – | 0.57 | 0.7 | – | -0.73 | -0.05 | -0.04 | -0.13 | – | 0.48 | Growth Rate (U2OS; [4]): 0.59; Growth Rate (HEK-293T; [3]): 0.2; Growth Rate (HEK-293T; [4]): 0.76; Growth Rate (HEK-293T; [5]): 0.52; Growth Rate (HEK-293T; [7]): 0.56; Growth Rate (HEK-293T; [9]): 0.64; Growth Rate (HEK-293T; [10]): 0.68; Growth Rate (Fibroblast; [4]): 0.36; Growth Rate (Fibroblast; [8]): 0.59; Growth Rate (Fibroblast; [10]): 0.75
Cc1cnc(-c2cc(N3CCN(C(=O)CCS(C)(=O)=O)CC3)ncc2Cl)c(C)c1 | – | – | – | – | – | – | 0.92 | – | – | 0.65 | 0.96 | – | – | – | 0.66 | 0.76 | 0.94 | 0.94 | – | 0.17 | Growth Rate (U2OS; [4]): 0.63; Growth Rate (Fibroblast; [4]): 0.05; Growth Rate (Fibroblast; [8]): 0.71
CCNC(=O)[C@H]1O[C@@H](n2cnc3c(N)nc(NCCc4ccc(CCC(=O)O)cc4)nc32)[C@H](O)[C@@H]1O.Cl | -0.07 | – | 0 | 0.64 | – | 0.96 | – | – | 0.97 | 0.05 | 0.1 | – | – | 0.98 | 0.96 | – | – | – | – | 0.63 | Growth Rate (U2OS; [4]): 0.99; Growth Rate (HEK-293T; [3]): 0.95; Growth Rate (Fibroblast; [4]): 0.47
Cc1nccc(COC(=O)N2C[C@@H]3[C@@H](CNC(=O)c4ccc5[nH]nnc5c4)[C@@H]3C2)n1 [BI 3017] | 0.07 | 0.45 | 0.79 | 0.75 | 0.9 | 0.68 | 0.98 | 0.71 | – | 0.67 | 0.34 | 0.9 | – | 0.77 | 0.04 | 0.1 | 0.53 | 0.68 | 0.35 | – | –
OCCCNc1cc(-c2ccnc(Nc3cccc(Cl)c3)n2)ccn1 | -0.27 | -0.28 | 0.44 | 0.44 | 0.56 | 0.26 | 0.36 | 0.23 | 0.24 | – | – | -0.62 | -0.46 | -0.55 | -0.19 | -0.15 | -0.2 | -0.02 | -0.42 | -0.06 | Growth Rate (HEK-293T; [3]): -0.65; Growth Rate (HEK-293T; [4]): -0.7; Growth Rate (HEK-293T; [5]): -0.52; Growth Rate (HEK-293T; [7]): -0.38; Growth Rate (HEK-293T; [9]): -0.29; Growth Rate (HEK-293T; [10]): -0.38; Growth Rate (Fibroblast; [4]): 0.11; Growth Rate (Fibroblast; [8]): -0.09; Growth Rate (Fibroblast; [10]): -0.06
Nc1ncnc2c1ncn2[C@@H]1O[C@H](CO)[C@@H](O)[C@H]1O [ADENOSINE] | 0.54 | – | 0.47 | 0.84 | – | 0.77 | – | – | – | -0.6 | -0.36 | – | 0.98 | 0.19 | -0.04 | 0.59 | 0.7 | 0.58 | 0.25 | – | Growth Rate (HEK-293T; [9]): 0.79
c1cc(OCCCN2CCCCC2)ccc1CN1CCCCC1 [JNJ-5207852] | -0.13 | – | – | – | 0.92 | – | 0.94 | – | – | – | – | – | – | – | 0.31 | – | – | 0.68 | 0.03 | 0.6 | Growth Rate (U2OS; [4]): 0.76; Growth Rate (HEK-293T; [4]): 0.82
O=C(O)c1nc2ccccc2c2[nH]c3c(I)cccc3c12 | – | -1 | 0.56 | – | 0.85 | 0.93 | 0.85 | – | 0.91 | 0.01 | 0.84 | 0.75 | 0.78 | 0.92 | – | – | – | – | -0.96 | – | –
CC(C)Oc1ccc(F)c(-c2cnc(N)c(C(=O)Nc3cnccc3N3CCC[C@@H](C(=O)O)C3)n2)c1 | – | -1 | – | – | – | – | 0.84 | – | 0.73 | 0.29 | 0.07 | 0.14 | 0.13 | 0.06 | – | – | – | – | -0.81 | – | Growth Rate (HEK-293T; [3]): 0.66; Growth Rate (HEK-293T; [4]): 0.25; Growth Rate (HEK-293T; [5]): 0.11; Growth Rate (HEK-293T; [7]): 0.21; Growth Rate (HEK-293T; [9]): 0.25; Growth Rate (HEK-293T; [10]): 0.33
CC(F)(F)CN1CCOc2c(nn(-c3ccccc3Cl)c2-c2ccc(Cl)cc2)C1=O | – | -1 | – | – | – | – | – | – | – | – | – | 0.82 | – | – | -0.37 | 0.01 | -0.21 | -0.09 | – | 0.22 | Growth Rate (Fibroblast; [4]): 0.94; Growth Rate (Fibroblast; [8]): 0.75; Growth Rate (Fibroblast; [10]): 0.06
